Measurements: patent US11737462B2, “Methods for modulating plant response to environmentally-induced stress” (Howard University, priority 2012, dated 2023)

Tests used:
[1] = tested on: homodimerized RACK1A maintaining yeast cells (AA); test: UV-B induced cell death in homodimerized RACK1A maintaining yeast cells (AA); type: cell-based; conditions: 60 μM overnight, Live/dead staining, vs DMSO-only control
Experimental: (§1) In this experiment, yeast cells were irradiated with UV-B light to analyze the effect of SD-29 analogs on UV-B induced cell death. The yeast cells were developed to assay for RACK1A homodimerization assays using split-ubiquitin technique. In this assay, homodimerized RACK1A maintaining yeast cells (AA) were grown overnight in the presence of 60 μM of the indicated compounds. Yeast cells treated overnight with SD-29-7, SD-29-9, and SD-29-11 with and without exposure to UV-B were compared to a DMSO-only control. The cells were stained with Invitrogen's Live/dead cell assay system where dead cells appeared as intensely fluorescent with brightness under a fluorescent microscope.
(§2) In this experiment, yeast was treated with UV-B to analyze the effect of SD-29-12 on UV-B induced cell death. Two groups of yeast were used. One was the yeast used in Example 6 (“AA”) and the other (“YY”) is a Y248F mutant. The AA cells can homodimerize but YY cells cannot.
(§3) The yeast was treated overnight with SD-29-12 and then followed the same protocol as described in Example 6.

RACK1A = RACK1A (Arabidopsis thaliana, UniProt O24456); test: in-vitro assay of tyrosine phosphorylation (Y248) based homodimerization of RACK1A; type: biochemical; conditions: in-vitro assay
Text: A crystal structure of Arabidopsis thaliana RACK1 protein has been reported. Deducing the crystal structure of the Arabidopsis RACK1A protein highlighted the potential functional residues of the protein. Noteworthy in the structure was the functionally conserved tyrosine phosphorylation residue (Y248) that has been implicated in RACK1A function. Therefore, it was undertaken to identify a chemical inhibitor of Y248 phosphorylation that would serve as a potential “anti-stress” compound in countering environmental stresses in plants. In order to identify small compounds occupying the Y248 pocket, docking simulations with a subset of 30,000 compounds were performed. Based on ranking with an energy cut-off of 25 kcal/mol, 3,011 compounds were then selected. Upon further re-ranking, 46 lead compounds were identified and 11 compounds were screened for their efficacy in an in-vitro assay. […] Those six compounds include SD-29, SD-29-9, SD-29-11, SD-29-22, SD-34, and SD-125.

Arabidopsis RACK1A = target: T1, Arabidopsis RACK1A (Arabidopsis thaliana, UniProt O24456); test: western blot of RACK1A tyrosine phosphorylation in Arabidopsis leaves under heat stress; type: in vivo; conditions: 42° C. for three hours, western blot, antibody to phosphorylated Y248
T1 construct: from tissue; host or cells: Arabidopsis plant leaves
Experimental: In the examples described herein, the test compounds (e.g., SD-29 or analogs thereof) were dissolved in dimethyl sulfoxide (DMSO) to provide a 20 mM concentration. Micromolar concentrations were then prepared as needed by addition to the water incubation media. Unless stated otherwise, the experimental plants were incubated with the roots immersed in the water containing the compound. The control plants received only DMSO in the same amount as that of the compound. In the second group (FIG. 3), Arabidopsis plants were held at 42° C. for six hours and compared to control plants held at about 22° C. The Arabidopsis plant in the experimental group was treated with 60 μM SD-29 in water. A control plant received water and DMSO. Lysates were then prepared from the leaves and western blots were performed using immobilized mouse anti-pTRY and Arabidopsis-anti RAC[…]. […] A similar experiment was carried out using analog SD-29-9 and SD-29 at 42° C. for three hours. […] A western blot was then performed using an antibody that was raised targeting phosphorylated […] residue of RAC[…].

Arabidopsis plants = test: high temperature stress (42° C.) in Arabidopsis plants; type: in vivo, Arabidopsis thaliana
Y248F mutant yeast (YY) = test: UV-B induced cell death in Y248F mutant yeast (YY); type: cell-based; conditions: treated overnight, Live/dead staining
Experimental: as §1, §2, §3

plant = test: salt sensitivity when applied to a plant; conditions: in vivo

Sequence of RACK1A (O24456 whole entry): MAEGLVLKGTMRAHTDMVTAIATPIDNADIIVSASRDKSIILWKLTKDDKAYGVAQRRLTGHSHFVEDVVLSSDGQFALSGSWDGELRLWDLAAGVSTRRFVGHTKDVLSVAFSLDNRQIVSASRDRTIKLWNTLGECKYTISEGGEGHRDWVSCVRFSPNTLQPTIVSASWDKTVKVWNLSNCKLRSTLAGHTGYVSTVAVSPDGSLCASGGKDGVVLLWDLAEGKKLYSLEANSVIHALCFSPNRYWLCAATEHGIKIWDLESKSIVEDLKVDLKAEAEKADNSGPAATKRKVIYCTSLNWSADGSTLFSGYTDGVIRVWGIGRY
T1 sequence (O24456 whole entry): as above

Row | Structure (SMILES) | UV-B induced cell death in yeast cells (AA) [1] | tyrosine phosphorylation (Y248) based homodimerization of RACK1A proteins (RACK1A) | also measured
1 | Nn1c(SCc2ccc(F)cc2)nnc1-c1ccc(Cl)cc1 [SD-29-7] | did not protect the cells | – | –
2 | Cc1cc(Cl)ccc1NC(=O)CSc1nnc(-c2cccc(Cl)c2)n1N [SD-29-9] | effective to protect yeast cells from UV-B induced cell death | prevent tyrosine phosphorylation (Y248) based homodimerization of RACK1A proteins | Arabidopsis RACK1A tyrosine phosphorylation at increased temperature (Arabidopsis RACK1A): effective to prevent Arabidopsis RACK1A tyrosine phosphorylation at increased temperature
3 | COc1cc(-c2nnc(SCC(=O)Nc3ccc(Oc4ccccc4)cc3)n2N)cc(OC)c1OC [SD-29-11] | effective to protect yeast cells from UV-B induced cell death | prevent tyrosine phosphorylation (Y248) based homodimerization of RACK1A proteins | –
4 | COc1ccc(-c2nnc(SCC(=O)O)n2N)cc1 [SD-29-12] | effective to prevent UV-B induced cell death | – | high temperature stress induced deformations in Arabidopsis plants (Arabidopsis plants; 42° C., vs vehicle control (DMSO)): very effective in preventing high temperature stress induced deformations; heat sensitivity when applied to a plant (Arabidopsis plants; in vivo): does not induce heat sensitivity; UV-B induced cell death in Y248F mutant yeast (YY) (Y248F mutant yeast (YY)): failed to provide protection from UV-B induced cell death; salt sensitivity when applied to a plant (plant): induces salt sensitivity
5 | Cc1ccc2[nH]cc(C(O)C(F)(F)F)c2c1 (stereo not shown) [SD-34] | – | prevent tyrosine phosphorylation (Y248) based homodimerization of RACK1A proteins | –
6 | COc1ccc2[nH]cc(CC(N)C(=O)O)c2c1 (stereo not shown) [SD-125] | – | prevent tyrosine phosphorylation (Y248) based homodimerization of RACK1A proteins | –
